Source: US20160145242A1, “PHENYLIMIDAZOLE DERIVATIVE, AND THERAPEUTIC MEDICINE OR PREVENTIVE MEDICINE FOR INFLAMMATORY DISEASE, ETC” (NIPPON SODA CO., LTD., priority 2013, published 2016)

Experiments:
[1] = target: T1, human platelet-derived thromboxane synthase (Homo sapiens, UniProt P24557); assay: Thromboxane synthase activity inhibitory action; format: biochemical; details: read-out: thromboxane synthase activity inhibition rate
T1 construct: host or cells: human recombinant cells (so in the source); platelets
T1 sequence (P24557 1-533): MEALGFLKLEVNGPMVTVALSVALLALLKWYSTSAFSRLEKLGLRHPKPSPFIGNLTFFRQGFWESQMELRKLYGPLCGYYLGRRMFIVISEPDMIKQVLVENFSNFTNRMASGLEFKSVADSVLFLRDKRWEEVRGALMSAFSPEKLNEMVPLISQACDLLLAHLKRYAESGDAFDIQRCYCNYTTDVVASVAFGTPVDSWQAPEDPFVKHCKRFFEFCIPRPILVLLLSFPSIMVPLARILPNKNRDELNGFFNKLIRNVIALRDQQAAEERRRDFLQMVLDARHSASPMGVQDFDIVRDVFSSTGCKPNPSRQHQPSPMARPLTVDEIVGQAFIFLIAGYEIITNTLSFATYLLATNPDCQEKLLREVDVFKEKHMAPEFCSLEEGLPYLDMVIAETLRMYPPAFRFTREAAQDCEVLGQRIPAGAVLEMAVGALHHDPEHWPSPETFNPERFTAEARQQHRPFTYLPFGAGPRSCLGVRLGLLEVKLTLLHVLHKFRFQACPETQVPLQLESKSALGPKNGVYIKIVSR
Protocol: The inhibitory action of the compound according to the present invention with respect to the activity of the present enzyme was examined using human platelet-derived thromboxane synthase.
Thromboxane synthase of human recombinant cells was reacted with 2.10 μM of prostaglandin H2 and the amount of thromboxane B2 which was a reaction product was measured by an enzyme-linked immunosorbent assay. 3 μM of the compound according to the present invention dissolved in dimethyl sulfoxide was added to the reaction system and the inhibition rate of thromboxane B2 generation (thromboxane synthase activity inhibition rate) was measured.

[2] = target: T2, guinea pig lung-derived leukotriene C4 synthase (Cavia porcellus, UniProt A6XA80); assay: Leukotriene C4 synthase activity inhibitory action; format: biochemical; details: read-out: leukotriene C4 synthase activity inhibition rate
T2 construct: guinea pig lung-derived leukotriene C4 synthase; from tissue; host or cells: Dunkin-Hartley guinea pig lung
T2 sequence (A6XA80 1-150): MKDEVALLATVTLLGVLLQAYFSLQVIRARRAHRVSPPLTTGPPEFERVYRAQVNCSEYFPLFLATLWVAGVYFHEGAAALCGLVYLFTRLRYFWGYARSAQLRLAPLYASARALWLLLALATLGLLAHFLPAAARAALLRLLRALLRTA
Protocol: The inhibitory action according to the compound of the present invention with respect to the activity of the present enzyme was examined using guinea pig lung-derived leukotriene C4 synthase.
Dunkin-Hartley guinea pig lung-derived leukotriene C4 synthase was reacted with 2.50 μg/mL of leukotriene A4 and the amount of leukotriene C4 which was a reaction product was measured by an enzyme-linked immunosorbent assay. 3 μM of the compound of the present invention dissolved in dimethyl sulfoxide was added to the reaction system and the inhibition rate of leukotriene C4 generation (leukotriene C4 synthase activity inhibition rate) was measured.

CC(=O)N1CCN(c2ccc(N)c(-n3ccnc3)c2)CC1 [Compound 1-1, 4-acetyl-1-(4-amino-3-imidazole-1-yl-phenyl)piperazine] was tested. Which inhibition at 3 µM [1] did it give?
The inhibition at 3 µM was 32%.

And the inhibition at 3 µM [2]?
Its inhibition at 3 µM is 27%.
